Patent publication US9006257B2, “Bicyclic compounds as mPGES-1 inhibitors” (Glenmark Pharmaceuticals S.A., priority 2012, dated 2015)

Biological target: T1, Recombinant human mPGES-1 (Homo sapiens, UniProt O14684)
T1 construct: made in house; host or cells: CHO cells
T1 sequence (O14684 1-152): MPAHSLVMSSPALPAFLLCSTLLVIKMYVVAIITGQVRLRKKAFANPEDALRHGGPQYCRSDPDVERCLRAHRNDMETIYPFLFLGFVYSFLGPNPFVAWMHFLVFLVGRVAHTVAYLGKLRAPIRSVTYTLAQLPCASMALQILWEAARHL
Assay: In-vitro mPGES-1 inhibitor screening (inhibition of PGE2 formation from PGH2, HTRF detection)
Format: biochemical
Details: for inhibition at 1 µM: 1 μM test compound, read-out: Percentage inhibition at 1 μM; for inhibition at 1 µM / inhibition at 10 µM: crude microsomal fraction, 15 μM PGH2; for inhibition at 10 µM: 10 μM test compound, read-out: Percentage inhibition at 10 μM; for IC50: class symbol, concentration response curve
Source text: In-Vitro Protocol for Screening of mPGES-1 Inhibitors:
mPGES-1 (microsomal prostaglandin E synthase-1) is a microsomal enzyme that converts endoperoxide substrate PGH2 (prostaglandin H2) to product PGE2 (prostaglandin E2) by isomerization in the presence of reduced glutathione (GSH). mPGES-1 inhibitors were screened by assessing their ability to inhibit formation of PGE2 from PGH2 in presence of mPGES-1 using an anti-PGE2 antibody based detection method. Recombinant human mPGES-1 was generated in-house by expression in CHO cells (Ouellet M et al. (2002), Protein Expression and Purification 26: 489-495). The assay was set up using crude microsomal fractions at protein concentration of 40-60 μg/mL. Test compounds were prepared in 100% dimethyl sulfoxide (DMSO) to obtain 20 mM stock solution and then diluted using assay buffer comprising 0.1 M Potassium phosphate buffer with 2 mM EDTA. The final concentration of DMSO in reaction was 0.5% (v/v). Negative controls were comprised of all assay reagents except the enzyme. Positive controls were comprised of the enzyme reaction in the absence of any inhibitor. Test compounds were incubated for 10 minutes in assay buffer containing 2.5 mM GSH and mPGES-1 enzyme followed by addition of PGH2 at a concentration of 15 μM for 1 minute. The reaction was stopped by addition of Stannous chloride (11 mg/ml) and PGE2 levels were measured (Masse F et al. (2005), Journal of Biomolecular Screening 10(6) 599-605., Goedken R E et al. (2008), Journal of Biomolecular Screening 13(7): 619-625) by HTRF kit (CisBio)).
Inhibition of mPGES-1 enzyme activity was measured using the percent of reaction occurring in the positive control. Concentration response curves were plotted using percent inhibition of maximum enzyme reaction. The IC50 value was calculated from the concentration response curve by nonlinear regression analysis using GraphPad PRISM software.

inhibition at 1 µM | inhibition at 10 µM | IC50 | SMILES
98.6% | 99.8% | < 50 nM | CC(C)(C)C(=O)NCc1ccc(Cl)c(C(=O)Nc2cccc3c(Nc4cccc(C(F)(F)F)c4)nccc23)c1 [Example-4, 2-Chloro-5-(pivalamidomethyl)-N-(1-((3-(trifluoromethyl)phenyl)amino)isoquinolin-5-yl)benzamide]
85.1% | 97.7% | > 100 nM | CC(C)(C)C(=O)NCc1ccc(Cl)c(C(=O)Nc2cccc3c(O[C@H]4CC[C@@H](C(F)(F)F)CC4)nccc23)c1 [Example-47, 2-Chloro-5-(pivalamidomethyl)-N-(1-(((1s,4s)-4-(trifluoromethyl)cyclohexyl)oxy)isoquinolin-5-yl)benzamide]
97.4% | 99.1% | < 50 nM | CC(C)(C)C(=O)NCc1ccc(Cl)c(C(=O)Nc2cccc3c(Nc4ccc(C(F)(F)F)nc4)ncnc23)c1F [Example-30, 6-Chloro-2-fluoro-3-(pivalamidomethyl)-N-(4-((6-(trifluoromethyl)pyridin-3-yl)amino)quinazolin-8-yl)benzamide]
100% | 100% | < 50 nM | CC(C)(C)C(=O)NCc1ccc(Cl)c(C(=O)Nc2cccc3c(Nc4ccc(C(F)(F)F)cc4F)nccc23)c1 [Example-44, 2-Chloro-N-(1-((2-fluoro-4-(trifluoromethyl)phenyl)amino)isoquinolin-5-yl)-5-(pivalamidomethyl)benzamide]
94.5% | 95.3% | < 50 nM | CC(C)(C)C(=O)NCc1ccc(Cl)c(C(=O)Nc2cccc3c(Oc4ccc(F)c(C(F)(F)F)c4)ncnc23)c1F [Example-52, 6-Chloro-2-fluoro-N-(4-(4-fluoro-3-(trifluoromethyl)phenoxy)quinazolin-8-yl)-3-(pivalamidomethyl)benzamide]
97.9% | 99.3% | 50 to 100 nM | Cc1nc(Oc2cccc(C(F)(F)F)c2)c2cccc(NC(=O)c3c(Cl)ccc(CNC(=O)C(C)(C)C)c3F)c2n1 [Example-56, 6-Chloro-2-fluoro-N-(2-methyl-4-(3-(trifluoromethyl)phenoxy)quinazolin-8-yl)-3-(pivalamidomethyl)benzamide]
95.8% | 97.2% | < 50 nM | CC(C)(C)C(=O)NCc1ccc(Cl)c(C(=O)Nc2cccc3c(Nc4cccc(C(F)(F)F)c4)nccc23)n1 [Example-2, 3-Chloro-6-(pivalamidomethyl)-N-(1-((3-(trifluoromethyl)phenyl)amino)isoquinolin-5-yl)picolinamide]
99.3% | 99.9% | < 50 nM | CC(C)(C)C(=O)NCc1ccc(Cl)c(C(=O)Nc2cccc3c(O[C@H]4CC[C@H](C(F)(F)F)CC4)nccc23)c1 [Example-38, 2-Chloro-5-(pivalamidomethyl)-N-(1-(((1r,4r)-4-(trifluoromethyl)cyclohexyl)oxy)isoquinolin-5-yl)benzamide]
83.3% | 94.8% | < 50 nM | CC(C)C(=O)NCc1cnc(C(F)F)c(C(=O)Nc2cccc3c(NCC(F)(F)F)ncnc23)c1 [Example-78, 2-(Difluoromethyl)-5-(isobutyramidomethyl)-N-(4-((2,2,2-trifluoroethyl)amino)quinazolin-8-yl)nicotinamide]
99.5% | 98.5% | < 50 nM | CC(C)(C)C(=O)NCc1ccc(Cl)c(C(=O)Nc2cccc3c(Oc4cccc(C(F)(F)F)c4)nccc23)c1F [Example-5, 6-Chloro-2-fluoro-3-(pivalamidomethyl)-N-(1-(3-(trifluoromethyl)phenoxy)isoquinolin-5-yl)benzamide]
97.7% | 98.2% | < 50 nM | CC(C)(C)C(=O)NCc1ccc(Cl)c(C(=O)Nc2ccnc3c(Nc4cccc(C(F)(F)F)c4)cccc23)c1 [Example-19, 2-Chloro-5-(pivalamidomethyl)-N-(8-((3-(trifluoromethyl)phenyl)amino)quinolin-4-yl)benzamide]
99.4% | 99.7% | < 50 nM | CC(C)(C)C(=O)NCc1ccc(Cl)c(C(=O)Nc2cccc3c(Nc4cccc(C(F)(F)F)c4)ncnc23)c1F [Example-12, 6-Chloro-2-fluoro-3-(pivalamidomethyl)-N-(4-((3-(trifluoromethyl)phenyl)amino)quinazolin-8-yl)benzamide]
95.5% | 97.2% | < 50 nM | Cc1nc(Nc2cccc(C(F)(F)F)c2)c2cccc(NC(=O)c3c(Cl)ccc(CNC(=O)C(C)(C)C)c3F)c2n1 [Example-33, 6-Chloro-2-fluoro-N-(2-methyl-4-((3-(trifluoromethyl)phenyl)amino)quinazolin-8-yl)-3-(pivalamidomethyl)benzamide]
83.5% | 93.4% | 50 to 100 nM | CC(C)Nc1ncnc2c(NC(=O)c3cc(CNC(=O)C(C)C)cnc3C(F)F)cccc12 [Example-76, 2-(Difluoromethyl)-5-(isobutyramidomethyl)-N-(4-(isopropylamino)quinazolin-8-yl)nicotinamide]
94.1% | 99.8% | < 50 nM | CC(C)(C)C(=O)NCc1ccc(Cl)c(C(=O)Nc2cccc3cccnc23)c1F [Example-55, 6-Chloro-2-fluoro-3-(pivalamidomethyl)-N-(quinolin-8-yl)benzamide]
99.7% | 98.5% | < 50 nM | CC(C)C(=O)NCc1cnc(C(F)F)c(C(=O)Nc2cccc3c(Oc4ccc(F)c(C(F)(F)F)c4)ccnc23)c1 [Example-80, 2-(Difluoromethyl)-N-(4-(4-fluoro-3-(trifluoromethyl)phenoxy)quinolin-8-yl)-5-(isobutyramidomethyl)nicotinamide]
91.9% | 91% | < 50 nM | COc1c(CNC(=O)C(C)(C)C)ccc(Cl)c1C(=O)Nc1cccc2c(Oc3cccc(C(F)(F)F)c3)ncnc12 [Example-49, 6-Chloro-2-methoxy-3-(pivalamidomethyl)-N-(4-(3-(trifluoromethyl)phenoxy)quinazolin-8-yl)benzamide]
98.4% | 99.9% | < 50 nM | CCOc1ncnc2c(NC(=O)c3c(Cl)ccc(CNC(=O)C(C)(C)C)c3F)cccc12 [Example-43, 6-Chloro-N-(4-ethoxyquinazolin-8-yl)-2-fluoro-3-(pivalamidomethyl)benzamide]
100% | 97.3% | < 50 nM | CC(C)(C)Nc1ncnc2c(NC(=O)c3cc(CNC(=O)C(C)(C)C)c(F)cc3Cl)cccc12 [Example-71, N-(4-(tert-Butylamino)quinazolin-8-yl)-2-chloro-4-fluoro-5-(pivalamidomethyl)benzamide]
99.3% | 99.8% | < 50 nM | CC1(C)CCC(Oc2ncnc3c(NC(=O)c4c(Cl)ccc(CNC(=O)C(C)(C)C)c4F)cccc23)CC1 [Example-24, 6-Chloro-N-(4-((4,4-dimethylcyclohexyl)oxy)quinazolin-8-yl)-2-fluoro-3-(pivalamidomethyl)benzamide]
99.3% | 98.5% | < 50 nM | CC(C)(C)C(=O)NCc1ccc(Cl)c(C(=O)Nc2cccc3c(Oc4cc(C(F)(F)F)ccc4F)ccnc23)c1F [Example-40, 6-Chloro-2-fluoro-N-(4-(2-fluoro-5-(trifluoromethyl)phenoxy)quinolin-8-yl)-3-(pivalamidomethyl)benzamide]
98.1% | 99.1% | < 50 nM | CC(C)(C)C(=O)NCc1ccc(Cl)c(C(=O)Nc2cccc3c(N[C@H]4CC[C@H](C(F)(F)F)CC4)nccc23)c1F [Example-36, 6-Chloro-2-fluoro-3-(pivalamidomethyl)-N-(1-(((1r,4r)-4-(trifluoromethyl)cyclohexyl)amino)isoquinolin-5-yl)benzamide]
100% | 96.7% | < 50 nM | CC(C)(C)C(=O)NCc1ccc(Cl)c(C(=O)Nc2cccc3c(Oc4cccc(C(F)(F)F)c4)nccc23)c1 [Example-7, 2-Chloro-5-(pivalamidomethyl)-N-(1-(3-(trifluoromethyl)phenoxy)isoquinolin-5-yl)benzamide]
